Assay [1] concerns HBV (extracellular HBsAg) in PHH. The assay is described as follows: Cryopreserved primary human hepatocytes (PHH) HBV infection assay, extracellular HBsAg (CLIA). It is filed as cell-based. Particulars: Hepatitis B virus, Hepatocyte, 216 h, read-out: HBsAg IC50. The method, then: This assay is used to confirm the anti-HBV effect of the compounds in HBV PHH infection assay. Cryopreserved PHH (BioreclamationIVT, Lot YJM) was thawed at 37° C. and gently transferred into pre-warmed InVitroGRO HT medium (BioreclamationIVT, Cat. S03317). The mixture was centrifuged at 70 relative centrifugal force (RCF) for 3 mins at RT, and the supernatant was discarded. Pre-warmed InVitroGRO CP medium (BioreclamationIVT, Cat #S03316) was added to the cell pellet to gently re-suspend cells. The cells were seeded at the density of 5.8×10^4 cells per well to collagen I coated 96-well plate (Gibco, Cat. A1142803) with the InVitroGRO CP medium. All plates were incubated at 37° C. with 5% CO2 and 85% humidity.
At 20 hours after plating, the medium was changed to PHH culture medium (Dulbecco's Modified Eagle Medium (DMEM)/F12 (1:1) (Gibco, Cat. 11320-033), 10% fetal bovine serum (Gibco Cat. 10099141), 100 U/mL penicillin, 100 μg/mL streptomycin (Gibco, Cat. 151401-122), 5 ng/mL human epidermal growth factor (Invitrogen Cat. PHG0311L), 20 ng/mL dexamethasone (Sigma, Cat. D4902) and 250 ng/mL human recombinant insulin (Gibco, Cat. 12585-014)). And the cells were incubated at 37° C. with 5% CO2 and 85% humidity for 4 hours. The medium was then changed to pre-warmed PHH culture medium containing 4% polyethylene glycol (PEG) MW8000 (Sigma, Cat. P1458-50ML) and 1% DMSO (Sigma, Cat. D2650). 5.8×10^6 genomic equivalents of HBV were added into the medium.
At 24 hours post-infection, the cells were gently washed with PBS and refreshed with PHH culture medium supplemented with 1% DMSO, and 0.25 mg/mL Matrix gel (Corning, Cat. 356237) at 200 μL per well. All plates were immediately placed in at 37° C. CO2 incubator.
24 hours later, serial dilutions of compounds made with DMSO were further diluted with the same culture medium (PHH culture medium supplemented with 1% DMSO and 0.25 mg/mL Matrix gel as described above) before they were added to the cells to reach desired final compound concentrations and 1% DMSO concentration. The medium containing the compounds were refreshed every three days.
At 9 days post-compound treatment, extracellular HBsAg level were measured with Chemiluminescence Immuno Assay (CLIA) kit (Autobio, HBsAg Quantitative CLIA). Extracellular HBV DNA was extracted by MagNA Pure 96 system (Roche) and then determined by quantitative PCR with the following primers and probe: […]
HBsAg IC50 and HBV DNA IC50 values were derived from the dose-response curve using 4 parameter logistic curve fit method. The compounds of formula (I) have HBsAg IC50<20 μM, particularly <1 μM; and HBV DNA IC50<50 μM.

For assay [2], the system named is HBeAg level in HepDES19 cells (surrogate marker for cccDNA). Nature of the assay: Engineered HepDES19 primary screen assay (HBeAg as surrogate marker for cccDNA). It is filed as cell-based, HBV. Particulars: Hepatitis B virus, HepDES19, 120 h, read-out: IC50 (HBeAg level, HepDES19 primary screen assay). The source says: The assay was employed to screen for novel cccDNA inhibitors. HepDES19 is a cccDNA-producing cell line. In this cell line, HBeAg in the cell culture supernatant as surrogate marker, as HBeAg production depends on cccDNA level and activity. HepDES19 is an engineered cell line which contains a 1.1 unit length HBV genome, and pgRNA transcription from the transgene is controlled by Tetracycline (Tet). In the absence of Tet, pgRNA transcription will be induced, but HBV e antigen (HBeAg) could not be produced from this pgRNA due to very short leader sequence before the HBeAg start codon and the start codon is disrupted. Only after cccDNA is formed, the missing leader sequence and start codon mutation would be restored from the 3′-terminal redundancy of pgRNA, and then HBeAg could be synthesized. Therefore, HBeAg could be used as a surrogate marker for cccDNA (Zhou, T. et al., Antiviral Res. (2006), 72(2), 116-124; Guo, H. et al., J. Virol. (2007), 81(22), 12472-12484).
HepDES19 cells were seeded at 2×10^6 cells per T150 flask and cultured with the culture medium (Dulbecco's Modified Eagle Medium: Nutrient Mixture F-12 [DMEM-F12, Gibco Cat. 11320-82], 10% Fetal Bovine Serum [FBS, Clontech Cat. 631101], 0.1 mM Non-Essential Amino Acids Solution [NEAA, Gibco Cat. 11140-050], 50 μg/mL Penicillin-Streptomycin [PS, Invitrogen Cat. 15140-163], 500 μg/mL Geneticin [G418, Invitrogen Cat. 10131-027]) containing 3 μg/mL Tet (Sigma, Cat. 87128) for 5 days. Cells were then seeded at 4×10^6 cells per T150 in the same culture medium as described above in the absence of Tet for 8 days. Cells were then harvested and frozen at density of 2×10^6 cells per mL. For compound testing, the frozen cells were thawed and seeded into 96-well plates at a density of 6×10^4 cells per well. At 24 hours after seeding, half log serial dilutions of compounds made with Dimethyl sulfoxide (DMSO, Sigma, Cat. D2650) were further diluted with the same culture medium as described above before they were added to the cells to reach desired final compound concentrations and 1% DMSO concentration. Plates were then incubated at 37° C. for another 5 days before measurement of HBeAg level and cell viability. Intracellular HBeAg level were measured with enzyme-linked immunosorbent assay (ELISA) kit (Shanghai Kehua Diagnostic Medical Products Co., Ltd). Cell viability was assessed using Cell Counting Kit-8 (Donjindo, Cat. CK04-20). IC50 values were derived from the dose-response curve using 4 parameter logistic curve fit method.
The compounds of the present invention were tested for their capacity to inhibit extracellular HBeAg level as described herein.

The structures appear in SMILES notation.

Usually IC50 stands for the point on the concentration scale where inhibition reaches its midpoint. Turning to `CC(C)(C)OC(=O)N1CCc2c(oc3c(Cl)cccc3c2=O)C1` [Example 1, tert-butyl 9-chloro-5-oxo-3,4-dihydro-1H-chromeno[2,3-c]pyridine-2(5H)-carboxylate], the half-inhibitory concentration (IC50) in assay [1] was found to be 10.6 µM; in assay [2], 9.12 µM.
Regarding `COc1ccc(N2CCc3c(oc4c(Cl)cccc4c3=O)C2=O)cc1` [Example 9, 9-chloro-2-(4-methoxyphenyl)-3,4-dihydro-1H-chromeno[2,3-c]pyridine-1,5(2H)-dione], the results for the concentration for half-maximal inhibition (IC50) in assay [1] and in assay [2] were 3.52 µM and 2.73 µM, respectively.
`O=C1c2oc3c(Cl)cccc3c(=O)c2CCN1c1ccc(Cl)cc1` [Example 12, 9-chloro-2-(4-chlorophenyl)-3,4-dihydro-1H-chromeno[2,3-c]pyridine-1,5(2H)-dione]: the IC50 in assay [1] is 2.76 µM; in assay [2], 0.82 µM.
With `O=C1c2oc3c(Cl)cccc3c(=O)c2CCN1c1ccc(F)cc1` [Example 14, 9-chloro-2-(4-fluorophenyl)-3,4-dihydro-2H-chromeno[2,3-c]pyridine-1,5-dione], the concentration for half-maximal inhibition (IC50) worked out at 9.85 µM in assay [1] and 2.07 µM in assay [2].
Consider `O=C1c2oc3c(Cl)cccc3c(=O)c2CCN1c1ccc(Cl)nc1` [Example 16, 9-chloro-2-(6-chloropyridin-3-yl)-3,4-dihydro-2H-chromeno[2,3-c]pyridine-1,5-dione], for which the concentration for half-maximal inhibition (IC50) worked out at 3.17 µM in assay [1] and 34.4 µM in assay [2].
Turning to `COc1cc(Cl)ccc1N1CCc2c(oc3c(Cl)cccc3c2=O)C1=O` [Example 17, 9-chloro-2-(4-chloro-2-methoxyphenyl)-3,4-dihydro-2H-chromeno[2,3-c]pyridine-1,5-dione], the results for the half-maximal inhibitory concentration (IC50) in assay [1] and in assay [2] were 14.7 µM and 2.4 µM, respectively.
For `O=C1c2oc3c(Cl)cccc3c(=O)c2CCN1c1ccc(F)c(C(F)(F)F)c1` [Example 18, 9-chloro-2-(4-fluoro-3-(trifluoromethyl)phenyl)-3,4-dihydro-2H-chromeno[2,3-c]pyridine-1,5-dione], in that order: 2.84 µM and 14 µM.
Turning to `O=C1c2oc3c(Cl)cccc3c(=O)c2CCN1c1ccccc1` [Example 19, 9-chloro-2-phenyl-3,4-dihydro-2H-chromeno[2,3-c]pyridine-1,5-dione], the results for the IC50 in assay [1] and in assay [2] were 16.9 µM and 0.56 µM, respectively.
For `O=C1c2oc3c(Cl)cccc3c(=O)c2CCN1c1ccc(C(F)(F)F)cc1` [Example 20, 9-chloro-2-(4-(trifluoromethyl)phenyl)-3,4-dihydro-2H-chromeno[2,3-c]pyridine-1,5-dione], the half-inhibitory concentration (IC50) amounted to 7.4 µM in assay [1] and 5.68 µM in assay [2].
For the compound `O=C1c2oc3c(Cl)cccc3c(=O)c2CCN1c1ccc(Cl)c(C(F)(F)F)c1` [Example 22, 9-chloro-2-(4-chloro-3-(trifluoromethyl)phenyl)-3,4-dihydro-2H-chromeno[2,3-c]pyridine-1,5-dione], the concentration for half-maximal inhibition (IC50) in assay [1] stood at 3.44 µM; in assay [2], 25.6 µM.
As for `O=C1c2oc3c(Cl)cccc3c(=O)c2CCN1c1ccccc1OC(F)(F)F` [Example 23, 9-chloro-2-(2-(trifluoromethoxy)phenyl)-3,4-dihydro-2H-chromeno[2,3-c]pyridine-1,5-dione], the IC50 in assay [1] was determined as 16.5 µM; in assay [2], 6.88 µM.
On to `O=C(O)C1CC(Oc2ccccc2N2CCc3c(oc4c(Cl)cccc4c3=O)C2=O)C1` (stereo not shown) [Example 25, 3-(2-(9-chloro-1,5-dioxo-1,3,4,5-tetrahydro-2H-chromeno[2,3-c]pyridin-2-yl)phenoxy)cyclobutane-1-carboxylic Acid], for which the IC50 in assay [1] was 48.4 µM.
As for `O=C(O)C1CC(Oc2cc(Cl)ccc2N2CCc3c(oc4c(Cl)cccc4c3=O)C2=O)C1` (stereo not shown) [Example 26, 3-(5-chloro-2-(9-chloro-1,5-dioxo-1,3,4,5-tetrahydro-2H-chromeno[2,3-c]pyridin-2-yl)phenoxy)cyclobutane-1-carboxylic Acid], in assay [1], the IC50 stood at 18.1 µM.
On to `O=C1c2oc3c(Cl)cccc3c(=O)c2CCN1c1ccc(Cl)cc1C(F)(F)F` [Example 27, 9-chloro-2-(4-chloro-2-(trifluoromethyl)phenyl)-3,4-dihydro-2H-chromeno[2,3-c]pyridine-1,5-dione], for which the IC50 in assay [1] is 13 µM; in assay [2] it was 0.89 µM.
For `O=C1c2oc3c(Cl)cccc3c(=O)c2CCN1c1ccc(Cl)c(Cl)c1` [Example 28, 9-chloro-2-(3,4-dichlorophenyl)-3,4-dihydro-2H-chromeno[2,3-c]pyridine-1,5-dione], in that order: 0.57 µM and 1.08 µM.
Turning to `O=C1c2oc3c(Cl)cccc3c(=O)c2CCN1c1ccc(Cl)cc1F` [Example 29, 9-chloro-2-(4-chloro-2-fluorophenyl)-3,4-dihydro-2H-chromeno[2,3-c]pyridine-1,5-dione], the IC50 stood at 2.17 µM in assay [1] and 2.36 µM in assay [2].
With `Cn1cc(N2CCc3c(oc4c(Cl)cccc4c3=O)C2=O)cn1` [Example 35, 9-chloro-2-(1-methyl-1H-pyrazol-4-yl)-3,4-dihydro-2H-chromeno[2,3-c]pyridine-1,5-dione], the IC50 amounted to 10.5 µM in assay [1] and 46.9 µM in assay [2].
For `O=c1c2c(oc3c(Cl)cccc13)CN(c1ccc(C(F)(F)F)cc1)CC2` [Example 39, 9-chloro-2-(4-(trifluoromethyl)phenyl)-1,2,3,4-tetrahydro-5H-chromeno[2,3-c]pyridin-5-one], in that order: 5.65 µM and 0.96 µM.
With `COc1ccc(N2CCc3c(oc4c(Cl)cccc4c3=O)C2)cc1` [Example 40, 9-chloro-2-(4-methoxyphenyl)-1,2,3,4-tetrahydro-5H-chromeno[2,3-c]pyridin-5-one], the IC50 in assay [1] came out at 11.6 µM; in assay [2] it was 5.9 µM.
On to `COc1cccc(N2CCc3c(oc4c(Cl)cccc4c3=O)C2)c1` [Example 41, 9-chloro-2-(3-methoxyphenyl)-1,2,3,4-tetrahydro-5H-chromeno[2,3-c]pyridin-5-one], for which the figures for the IC50 in assay [1] and in assay [2] were 30.7 µM and 19.2 µM, respectively.
For the compound `O=C1c2oc3c(Cl)cccc3c(=O)c2CN1c1ccc(Cl)cc1` [Example 51, 5-chloro-2-(4-chlorophenyl)-1H-chromeno[2,3-c]pyrrole-3,9-dione], the half-maximal inhibitory concentration (IC50) in assay [1] came out at 5.8 µM; in assay [2] it was 5.46 µM.
